Measured values reported in ChEMBL document CHEMBL1614632, “Trend analysis of a database of intravenous pharmacokinetic parameters in humans for 670 drug compounds” (Drug Metab Dispos, 2008).

Legend:
clinical [1] = details: human, in vivo, iv
clinical [2] = details: human, in vivo, iv, t1/2
clinical [3] = details: human, in vivo, iv, Vdss
clinical [4] = details: human, in vivo, iv; remark: listed apart in the source
clinical [5] = details: human, in vivo, iv, CL

Structure (SMILES)	fraction unbound (clinical [1])	half-life (clinical [2]) [h]	Vd (clinical [3]) [L/kg]	MRT (clinical [4]) [h]	clearance (clinical [5]) [mL/min/kg]
CCOc1ccc2ccccc2c1C(=O)N[C@@H]1C(=O)N2[C@@H]1SC(C)(C)[C@@H]2C(=O)O [NAFCILLIN]	0.13	0.7	0.22	1.1	3.3
CN[C@H]1C(=O)N[C@@H]2Cc3ccc(cc3)Oc3cc4cc(c3O[C@@H]3O[C@H](C(=O)O)[C@@H](O)[C@H](O)[C@H]3NC(=O)CCCCCCCCC(C)C)Oc3ccc(cc3Cl)[C@@H](O)[C@@H]3NC(=O)[C@H](NC(=O)[C@@H]4NC(=O)[C@@H](NC2=O)c2cc(cc(O)c2Cl)Oc2cc1ccc2O)c1ccc(O)c(c1)-c1c(O[C@H]2O[C@H](CO)[C@@H](O)[C@H](O)[C@@H]2O)cc(O)cc1[C@@H](C(=O)NCCCN(C)C)NC3=O [DALBAVANCIN]	0.02	170	0.14	230	0.01
NCCCCCC(=O)O [AMINOCAPROIC ACID]	0.92	4.9	0.39	2.6	2.5
O=C(O)c1cc(-c2ccc(F)cc2F)ccc1O [DIFLUNISAL]	0.0016	10	0.097	14	0.1
CC1(C)O[C@@H]2C[C@H]3[C@@H]4CCC5=CC(=O)C=C[C@]5(C)[C@@]4(F)[C@@H](O)C[C@]3(C)[C@]2(C(=O)CO)O1 [TRIAMCINOLONE ACETONIDE]	0.2	2.4	1.4	2.5	9.4
O=C(Cc1cccs1)N[C@@H]1C(=O)N2C(C(=O)[O-])=C(C[n+]3ccccc3)CS[C@H]12 [CEPHALORIDINE]	0.8	1.5	0.46	2.3	3.3
CCCCCc1cc(O)c2c(c1)OC(C)(C)[C@@H]1CCC(C)=C[C@@H]21 [DRONABINOL]	0.05	33	8.9	46	3.2
[H]/N=C(/N)N[C@H]1[C@H](O)[C@@H](O)[C@H](O[C@@H]2O[C@@H](C)[C@](O)(C=O)[C@H]2O[C@@H]2O[C@@H](CO)[C@H](O)[C@@H](O)[C@@H]2NC)[C@@H](N/C(N)=N\[H])[C@@H]1O [STREPTOMYCIN]	0.65	4.3	0.34	7.3	0.78
CCN(CCO)CCCC(C)Nc1ccnc2cc(Cl)ccc12 (stereo not given) [HYDROXYCHLOROQUINE]	0.57	850	700	1300	11
CCCCC1=NC2(CCCC2)C(=O)N1Cc1ccc(-c2ccccc2-c2nnn[nH]2)cc1 [IRBESARTAN]	0.1	14	0.94	6.8	2.3
Nc1nc(F)nc2c1ncn2[C@@H]1O[C@H](CO)[C@@H](O)[C@@H]1O [FLUDARABINE]	0.76	11	2.2	12	3.2
CN(C)CCc1c[nH]c2ccc(CS(=O)(=O)N3CCCC3)cc12 [ALMOTRIPTAN]	0.6	3.4	2.2	4.2	8.9
C[C@@H]([C@@H](O)c1ccc(O)cc1)N1CCC(O)(c2ccccc2)CC1 [TRAXOPRODIL]	0.63	3.7	4.4	2.6	27
CC(C)N(CCC(C(N)=O)(c1ccccc1)c1ccccn1)C(C)C (stereo not given) [DISOPYRAMIDE]	0.16	7	0.52	9.6	0.9
CO/N=C(\C(=O)N[C@@H]1C(=O)N2C(C(=O)O)=C(C)CS[C@H]12)c1csc(N)n1	0.78	2.1	0.28	2.5	1.9
